# *1 amine or outer side, *2 acyl side, *3 side chain or, on linkers, in order; H or OH if unused. Where a SMILES comes first, the peptide text is derived from it. Bridges are numbered along the chain shown (N, C = ends). [ ]: non-standard residue; d: D form. X1 = CC(C)CCCCCCCCC[C@H](CC(=O)[*:1])O[*:2]
# System: genes associated with moisturization in keratinocytes
# Assay: Expression of genes associated with moisturization in keratinocytes cultivated in vitro (quantitative PCR)
# Format: cell-based, human
# Conditions: 0.002 mg/L and 0.01 mg/L in water
# Procedure: K266 human epidermic keratinocytes were seeded in wells (50,000 cells/well) and cultivated in a Dermalife K medium (Lifeline LL-007) for 3 days at 37° C. and 5% of CO2. At the end of incubation, the culture medium was replaced by a test medium (K Dermalife supplemented with 1.5 mM CaCl2) containing or not containing (control) the mixture of arthrofactins obtained in example 1 in the form of a powder diluted to 0.1% in water or references (retinoic acid at 0.1 μM and 1 μM, or retinol at 10 μM). The cells were then incubated for 24 hours.
# In parallel, normal human keratinocytes (NHK, 01.12) were seeded in wells (50,000 cells/well) and cultivated in a COMPLETE KGM medium (KGM BULLETKIT, LONZA, CC-3111) for 3 days at 37° C. and 5% of CO2. […]
# The quantification of RNA and quality control were analyzed using LabChip GX (Perkin Elmer). Reverse transcription (RT) of RNA into cDNA was carried out using the Quantitect® inverse transcription kit (QIAGEN) following the manufacturer's recommendations. […]
# The expression of selected transcripts was then analyzed by quantitative PCR using a LightCycler 480 Real-Time PCR System 384-well plate system (Roche) using the SYBR® Green incorporation technique (Roche). […]
structure (smiles),measurement,value
CC(C)CCCCCCCCC[C@@H]1CC(=O)N[C@@H](CCC(=O)O)C(=O)N[C@@H](CC(C)C)C(=O)N[C@H](CC(C)C)C(=O)N[C@@H](C(C)C)C(=O)N[C@@H](CC(=O)O)C(=O)N[C@H](CC(C)C)C(=O)N[C@@H](CC(C)C)C(=O)O1 [Sodium Surfactin] (EL[dL]VD[dL]L; linker N-C via X1),Expression of genes associated with moisturization in keratinocytes,lower expression

# From patent US11872298B2, “Cosmetic use of arthrofactin” (L'OREAL, priority 2016, dated 2024)
